Measurements taken from article PMC5958115, “A novel small molecule chaperone of rod opsin and its potential therapy for retinal degeneration” (Nature Communications, 2018).
pEC50: −log10 of the molar value. Entries after “also recorded” stand apart in the source; their conditions may differ. Where two headings read alike, the source gives them in different places.

Assays:
Format in all cases: cell-based
mouse P23H-opsin mutant = mouse P23H-opsin mutant (Mus musculus, UniProt P15409, P23H); experiment: β-Gal fragment complementation assay: rescue of P23H opsin transport from ER to plasma membrane, U2OS(PLC-EA/P23H-PK) cells; conditions: for Emax: U2OS, read-out: Efficacy (%); for β-Gal fragment complementation assay Activity score (%) Max (Exp) / β-Gal fragment complementation assay Activity score (%) Max (fit) / Efficacy: 24 h, 5 µM 9-cis-retinal = 100%; for β-Gal fragment complementation assay Activity score (%) Max (Exp): experimental maximum; for β-Gal fragment complementation assay Activity score (%) Max (fit) / Efficacy: from curve fitting
Excerpt: U2OS(PLC-EA/P23H-PK) cells. A U2OS stable cell line was generated by DiscoveRx, Inc. (Fremont, CA, USA) for the β-Gal fragment complementation assay used in the small-molecule HTS for rescue of P23H-opsin transport. U2OS cells that continually express P23H-PK and PLC-EA fusion proteins were generated. Briefly, this small subunit of β-Gal (PK fragment) was fused to the C-terminal of the mouse P23H-opsin mutant, while the large EA fragment, a subunit of β-Gal, was fused with PLC, a plasma membrane-anchored peptide. Both constructs were subcloned by DicoveRx, Inc. and transferred into U2OS cells by viral infections. Positive clones were selected under treatment with hygromycin and geneticin.
Briefly, U2OS(PLC-EA /P23H-PK) cells were suspended in assay medium at 3 × 10^5 cells mL^−1. The cell suspension was dispensed into 384-well plates (Greiner Bio-one, Monroe, NC, USA) at 20 µL per well, with a Multidrop dispenser (Thermo Scientific, Waltham, MA, USA). Plates with cells then were centrifuged at 200×g for 15 s before incubation at 37 °C with 5% CO2. Plates were removed 24 h later for treatment with tested compounds. A total of 248 plates containing 79,080 compounds from three small-molecule libraries were paired with an equal number of assay plates with cultured cells. Owing to a limited capacity, these plates were assayed in seven batches. An average of 56.3 nL of 10 mM compound in DMSO was dispensed into each well from column 3 to 22 of paired assay plates using a 50 nL 384-pintool system, such that the final concentration of each compound was 22.52 µM on average. […] Each assay plate was shaken for 5 s before further incubation at 37 °C with 5% CO2. After 24 h, assay plates were removed, and each well was incubated with 25 µL of 1× Gal-Screen assay buffer (1:24 substrate-buffer ratio). Assay plates were incubated in the dark for 60–90 min, and luminescence was read from each assay plate with an Envision microplate reader (PerkinElmer) during a 0.1 s per well integration time. The mean and s.d. of readouts in column 2 of each plate were calculated as Mean0% and SD0%, whereas the average and s.d. of readouts in column 23 were calculated as Mean100% and SD100%. Eq. 1: Activity scores (%) = (RLUcp − Mean0%)/(Mean100% − Mean0%) × 100%, where RLUcp is the relative luminescence unit derived for cells treated with a compound. Eq. 2: Z′-factor = 1–3 × (SD0% + SD100%)/(Mean100% − Mean0%)[32]; Eq. 3: signal-to-background (S/B) ratio = Mean100%/Mean0%. Activities of all tested compounds were registered with their compound ID by GeneData Screener (Genedata, Basel, Switzerland) and Pipeline Pilot software (Accelrys, San Diego, CA, USA). Hits, cherry-picked from a separate stock dose-dependent activity test, were selected with an activity score cutoff at 20%. Activity of each hit was tested again with the β-Gal fragment complementation assay in a 10-dose series with each dose tested in triplicate. The 10 doses tested were 80, 40, 20, 10, 5, 2.5, 1.25, 0.625, 0.313, and 0.156 µM. Dose-dependent curves of each hit compound were fitted with GeneData and Origin software.
Detailed synthetic steps are described in Supplementary Note and Supplementary Fig. 9. […] YC-002-YC-021 were purchased from commercial vendors including Enamine LLC (Monmouth Jct., NJ, USA), Matrix Scientific (Columbia, SC, USA) and Tokyo Chemical Industry Co., Ltd. (Portland, OR, USA). […] Activities of YC compounds were tested with the β-Gal fragment complementation assay, as described in a prior section. All YC compounds were tested at 10 doses, each in triplicate: 80, 40, 20, 10, 5, 2.5, 1.25, 0.625, 0.313, and 0.156 µM.

mouse P23H opsin = molecular target: T1, mouse P23H opsin (Mus musculus, UniProt P15409, P23H); experiment: High-content imaging analysis of P23H opsin immunostaining in NIH3T3-(P23H opsin/GFP) cells; conditions: ratio of P23H rod opsin fluorescence on plasma membrane to whole cell; for EC50: read-out: Immunostaining HCS MEM-Total ratio EC50
T1 construct: expressed in transfected cells
Experimental: To characterize the effect of active compounds on the localization of P23H-mutant opsin in mammalian cells, an image-based assay was used with cells immunostained for WT or P23H-mutant opsin protein[18]. Briefly, NIH3T3-(P23H opsin/GFP) or NIH3T3-(WT-opsin/GFP) cells were seeded at 5000 cells per well in a 384-well cell-carrier plate (PerkinElmer) and incubated at 37 °C with 5% CO2 for 2 h. Cells were treated with compounds as described for the β-Gal fragment complementation assay and incubated in assay medium for 24 h. The assay medium then was aspirated, and cells were fixed with 4% paraformaldehyde at 20 µL per well for 20 min at RT. Cells were immunostained in one of two ways: cell membranes were either permeabilized with 0.1% Triton X-100 for 15 min or left intact and then were incubated with 10% goat serum (Life Technologies). To detect opsin on the cell plasma membrane only, intact cells were immunostained with 20 µL per well of 20 µg mL^−1 B6-30 anti-rhodopsin antibody that recognizes the N-terminal epitope on the extracellular side of rhodopsin. To detect total opsin, cells were permeabilized with Triton X-100 and immunostained with 50 µg mL^−1 1D4 anti-rhodopsin antibody specific for the C-terminal epitope on the intracellular side of rhodopsin. Opsin immunostaining was visualized by incubating cells with 5 µg mL^−1 Cy3-conjugated goat anti-mouse IgG antibody. Three washes with phosphate-buffered saline (PBS: 10 mM Na2HPO4, 1.8 mM KH2PO4, pH 7.4, 137 mM NaCl, and 2.7 mM KCl) were performed between each step of incubation with antibody. In the last wash with PBS, DAPI was added to each well at 300 nM. Fluorescence images were obtained with the Operetta High Content Imaging System (PerkinElmer) using a ×20 long objective. Five fields were taken of each well for cell images using three channels for fluorescence: GFP (100 ms), Cy3 (300 ms), and DAPI (50 ms). Images were analyzed with Acapella software from the Columbus data storage and analysis system (PerkinElmer)[18]. For cells immunostained with opsin on the non-permeabilized cell membrane only, an average of total fluorescence intensity of Cy3 per cell was used to quantify opsin in each well of the 384-well plate. For cells immunostained with opsin in permeabilized whole cells, an average ratio of Cy3 intensity on the cell plasma membrane (PM) to that of the entire cell (opsin ratio PM-to-total) was calculated for each well of a 384-well plate to quantify opsin transport to the plasma membrane. The plasma membrane was defined within ± 5% of the cell border.

P23H opsin = molecular target: T2, P23H opsin (Mus musculus, UniProt P15409, P23H); experiment: Immunoblot of P23H opsin glycosylation in NIH3T3 cell lysates; parameters: key to Improved glycosylation: n = no; y = yes; conditions: P23H opsin
T2 construct: expressed in transfected cells
Experimental: NIH3T3-(P23H opsin/GFP) or NIH3T3-(WT-opsin/GFP) cells were seeded in a 48-well plate (Corning Costar) at 3.2 × 10^5 cells per well and incubated at 37 °C with 5% CO2 for 2 h. One hundred-µL of assay medium containing a compound at 5× its final concentration was added to each well. The plate was gently shaken for 5 s before further incubation at 37 °C with 5% CO2 for 24 h. The assay medium then was aspirated, and cells were lysed with 100 µL per well PBS containing 0.1% Triton X-100 and complete protease inhibitor cocktail (Roche, Basel, Switzerland) followed by sonication for 3 s. Protein concentrations were determined with the Bradford assay. For PNGaseF catalyzed deglycosylation, 3 µL of PNGaseF (1500 U, NEB) was added to the cell lysate and the mixture was incubated at room temperature for 1 h before immunoblotting. For NIH3T3-(P23H opsin/GFP) cells, 15 µg of total protein were loaded per well onto an SDS-polyacrylamide gel; whereas for NIH3T3-(WT-opsin/GFP) cells, 5 µg of total protein was loaded per well. Opsin protein was immunostained with 0.2 μg mL^−1 horseradish peroxidase-conjugated 1D4 anti-rhodopsin antibody. Band intensities were measured with ImageJ software (http://imagej.nih.gov/ij/; National the Institutes of Health, Bethesda, MD, USA) and normalized to a glyceraldehyde 3-phosphate dehydrogenase (GAPDH) loading control. Full scans of immunoblotted membranes are shown in Supplementary Fig. 8.

[1] = modifications linked to C3 of the furan-2(5H)-one ring, 10 doses 0.156-80 µM, read-out: Potency EC50
[2] = 24 h preincubation, activity standardized to 5 µM 9-cis-retinal as 100%, Hill fit, read-out: β-Gal fragment complementation assay Activity score (%) EC50

Row | Structure (SMILES) | Emax (mouse P23H-opsin mutant) [%] | pEC50 (mouse P23H-opsin mutant; [1]) | β-Gal fragment complementation assay Activity score (%) Max (Exp) (mouse P23H-opsin mutant) [%] | β-Gal fragment complementation assay Activity score (%) Max (fit) / Efficacy (mouse P23H-opsin mutant) [%] | pEC50 (mouse P23H-opsin mutant; [2]) | Immunostaining HCS MEM-Total ratio Max (fit) (mouse P23H opsin) | EC50 (mouse P23H opsin) [µM] | Improved glycosylation (P23H opsin) | pEC50 (mouse P23H-opsin mutant; more than one site modified, read-out: Potency) | activity in rescuing P23H-opsin transport (in words) (mouse P23H-opsin mutant) | Efficacy (%) (mouse P23H-opsin mutant; modifications at C3, normalized to 5 µM 9-cis-retinal)
1 | O=C1OCC(c2ccc(Cl)s2)=C1c1ccc(Cl)cc1Cl [YC-055] | 11 | 5.27 | – | – | – | – | – | – | – | – | –
2 | O=C(NCCCn1cccc1)c1cc(-c2ccccc2)on1 [Compound F5937-0207] | – | – | 32.8 | 37.3 | 5.08 | 0.021 | 1.33 | n | – | – | –
3 | Cc1cc(OCC(=O)Nc2cc(N3CCOCC3)ncn2)cc(C)c1Cl [Compound F6257-1860] | – | – | 211 | 234 | 4.97 | 0.022 | 1.07 | n | – | – | –
4 | O=C(C1CC1)N(CCn1cccn1)c1nc2c(Cl)cccc2s1 [Compound F5581-0240] | – | – | 244 | 230 | 5.23 | 0.010 | 0.64 | y | – | – | –
5 | Cc1sc(C)c(C2C(=O)OC(=O)C2c2c(C)sc(C)c2C)c1C (stereo not drawn) [YC-018] | – | – | – | – | – | – | – | – | 3.86 | – | –
6 | O=C1OCC(c2ccc(Cl)s2)=C1c1ccccn1 [YC-043] | – | 4.72 | – | – | – | – | – | – | – | activity was preserved or improved; also recorded: improved potency, efficacy, or solubility | 214
7 | O=C(Cn1c2c(c(=O)n(C3CCCCC3)c1=O)CCC2)Nc1cccc(F)c1 [Compound F5111-0031] | – | – | 60.4 | 165 | 4.27 | 0.025 | 6.76 | y | – | – | –
8 | O=C(NCCCOc1cccc2cccnc12)c1cc(-c2ccccc2)on1 [Compound F5875-0200] | – | – | 31.8 | 51.6 | 4.60 | 0.041 | 6.2 | n | – | – | –
9 | O=C1OCC(c2ccc(Cl)s2)=C1c1ccccc1 [YC-047] | 188 | 5.01 | – | – | – | – | – | – | – | activity was preserved or improved | –
10 | O=C1OCC(c2ccc(Cl)s2)=C1c1cccc(F)c1 [YC-050] | 131 | 5.13 | – | – | – | – | – | – | – | lower efficacies | –
